Experimental data as given in ChEMBL document CHEMBL5385929, “Tabersonine Enhances Olaparib Sensitivity through FHL1-Mediated Epithelial-Mesenchymal Transition in an Ovarian Tumor” (J Nat Prod, 2024).
Active and inactive are the calls of the source. The calls are words filed in the database; no cut-off is given here.

What was measured:
SK-OV-3 = assay: Downregulation of EMT signalling in human SK-OV-3 cells assessed as upregulation of E-cadherin protein expression at 10 uM by western blot analysis; format: functional, cell-based
A2780 = assay: Potentiation of olaparib-induced antitumor activity against shFHL1-1 RNA-transfected human A2780 cells xenografted in BALB/c mouse assessed as decrease in tumor volume at 15 mg/kg, ip co-administered with olaparib for 2 weeks; format: functional, organism-based

In the case of `CC[C@]12C=CCN3CC[C@]4(C(=C(C(=O)OC)C1)Nc1ccccc14)[C@@H]32` [TABERSONINE], the inhibition (SK-OV-3) is reported as “Active” and the Activity (A2780) is reported as “inactive”.
